Source: US12275733B2, “Substituted pyrido[3,4-b]indoles for the treatment of cartilage disorders” (Sanofi, priority 2016, dated 2025)

Tested on: ATDC5 cells
Experiment: Chondrogenesis activity assay in ATDC5 cells (collagen type II induction, immunofluorescence)
Assay type: cell-based, mouse
Settings: Mus musculus; for EC50: collagen type II induction in ATDC5 cells, concentration reaching 50% of maximum induction; for Emax: maximum percent induction of collagen type II relative to internal reference compound at 10 μM, ATDC5 cells
Method in brief: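 Collagen type II was stained in fixed, permeabilized cells with an Alexa Fluor 488 secondary and measured by high-content fluorescence imaging. ATDC5 cells had 4 days at 37 °C in insulin-supplemented differentiation medium with compound, typically 40 nM–10 μM, 0.1% DMSO. DMSO wells and a 10 μM internal reference compound were used for normalization.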

Row | EC50 [nM] | SMILES | Emax [%]
1 | 3900 | CCn1c2c(-c3ccn(C)n3)cc(Cl)cc2c2ccnc(C)c21 [Example 20, 6-Chloro-9-ethyl-1-methyl-8-(1-methyl-1H-pyrazol-3-yl)-9H-pyrido[3,4-b]indole] | 50 to 80
2 | 230 | CCn1c2c(-c3cnn(C)c3)cc(Cl)cc2c2ccnc(C)c21 [Example 164, 6-Chloro-9-ethyl-1-methyl-8-(1-methyl-1H-pyrazol-4-yl)-9H-pyrido[3,4-b]indole] | > 80
3 | 720 | Cc1nccc2c1[nH]c1c(-c3ccc(Cl)cc3Cl)cc(Cl)cc12 [Example 190, 6-Chloro-8-(2,4-dichloro-phenyl)-1-methyl-9H-pyrido[3,4-b]indole] | > 80
4 | 1200 | COc1ccc(-c2cc(Cl)cc3c4ccncc4n(CC4(C)COC4)c23)cc1 [Example 52, 6-Chloro-8-(4-methoxy-phenyl)-9-(3-methyl-oxetan-3-ylmethyl)-9H-pyrido[3,4-b]indole] | 50 to 80
5 | 1800 | Cc1cc(-c2cc(Cl)cc3c2[nH]c2c(C)nccc23)ccc1OC1CCOC1 (centres unmarked) [Example 198, 6-Chloro-1-methyl-8-[3-methyl-4-(tetrahydrofuran-3-yloxy)-phenyl]-9H-pyrido[3,4-b]indole] | 20 to 50
6 | > 10000 | COc1cc(OC)c(-c2cc(Cl)cc3c2[nH]c2c(C)nccc23)c(OC)c1 [Example 175, 6-Chloro-1-methyl-8-(2,4,6-trimethoxy-phenyl)-9H-pyrido[3,4-b]indole] | < 20
7 | 1100 | CCn1c2cnccc2c2cc(Cl)cc(-c3ccc(Cl)nc3)c21 [Example 54, 6-Chloro-8-(6-chloro-pyridin-3-yl)-9-ethyl-9H-pyrido[3,4-b]indole] | 20 to 50
8 | 2500 | N#Cc1ccc(-c2cc(Cl)cc3c4ccncc4n(CC(F)(F)F)c23)cn1 [Example 60, 5-[6-Chloro-9-(2,2,2-trifluoro-ethyl)-9H-pyrido[3,4-b]indol-8-yl]-pyridine-2-carbonitrile] | 20 to 50
9 | > 10000 | Cc1nccc2c3cc(Cl)cc(-c4cnn(Cc5cccnc5)c4)c3n(CC3CC3)c12 [Example 290, 6-Chloro-9-cyclopropylmethyl-1-methyl-8-(1-pyridin-3-ylmethyl-1H-pyrazol-4-yl)-9H-pyrido[3,4-b]indole] | 20 to 50
10 | 5700 | Cn1c(-c2cc(Cl)cc3c4ccncc4n(CC(F)(F)F)c23)cnc1Cl [Example 114, 6-Chloro-8-(2-chloro-3-methyl-3H-imidazol-4-yl)-9-(2,2,2-trifluoro-ethyl)-9H-pyrido[3,4-b]indole] | 20 to 50
11 | 340 | Cc1nccc2c1[nH]c1c(-c3ccc(Oc4ncc(Br)cn4)cc3)cc(Cl)cc12 [Example 268, 8-[4-(5-Bromo-pyrimidin-2-yloxy)-phenyl]-6-chloro-1-methyl-9H-pyrido[3,4-b]indole] | > 80
12 | 2300 | Cc1nccc2c1[nH]c1c(-c3ccc(OC4CC4)cc3)cc(Cl)cc12 [Example 183, 6-Chloro-8-(4-cyclopropoxy-phenyl)-1-methyl-9H-pyrido[3,4-b]indole] | 50 to 80
13 | > 10000 | FC(F)(F)Cn1c2cnccc2c2cc(Cl)cc(-c3ccc(Cl)s3)c21 [Example 134, 6-Chloro-8-(5-chloro-thiophen-2-yl)-9-(2,2,2-trifluoro-ethyl)-9H-pyrido[3,4-b]indole] | < 20
14 | > 10000 | Cc1nccc2c3cc(Cl)cc(-c4ccc(N5CCN(C)CC5)nc4)c3n(CC3CC3)c12 [Example 51, 6-Chloro-9-cyclopropylmethyl-1-methyl-8-[6-(4-methyl-piperazin-1-yl)-pyridin-3-yl]-pyrido[3,4-b]indole] | < 20
15 | 910 | Cc1cc(-c2cc(Cl)cc3c4ccncc4n(CC(F)(F)F)c23)n(C)n1 [Example 140, 6-Chloro-8-(2,5-dimethyl-2H-pyrazol-3-yl)-9-(2,2,2-trifluoro-ethyl)-9H-pyrido[3,4-b]indole] | 20 to 50
16 | 3600 | Cc1nccc2c3cc(Cl)cc(-c4ccc(Cl)cc4Cl)c3n(CC3CC3)c12 [Example 282, 6-Chloro-9-cyclopropylmethyl-8-(2,4-dichloro-phenyl)-1-methyl-9H-pyrido[3,4-b]indole] | < 20
17 | 300 | COc1cc(OC)nc(COc2ccc(-c3cc(Cl)cc4c3[nH]c3c(C)nccc34)cc2)n1 [Example 275, 6-Chloro-8-[4-(4,6-dimethoxy-pyrimidin-2-ylmethoxy)-phenyl]-1-methyl-9H-pyrido[3,4-b]indole] | > 80
18 | 460 | CCn1c2cnccc2c2cc(Cl)cc(-c3cccnc3Cl)c21 [Example 56, 6-Chloro-8-(2-chloro-pyridin-3-yl)-9-ethyl-9H-pyrido[3,4-b]indole] | 20 to 50
19 | 100 | COc1ccc(-c2cc(Cl)cc3c2[nH]c2c(C)nccc23)cc1N [Example 186, 5-(6-Chloro-1-methyl-9H-pyrido[3,4-b]indol-8-yl)-2-methoxy-phenylamine] | > 80

Row | EC50 [nM] | SMILES | Emax [%]
20 | 2000 | Fc1cncc(-c2cc(Cl)cc3c4ccncc4n(CC(F)(F)F)c23)c1 [Example 82, 6-Chloro-8-(5-fluoro-pyridin-3-yl)-9-(2,2,2-trifluoro-ethyl)-9H-pyrido[3,4-b]indole] | 20 to 50
21 | 2600 | CCn1c2c(-c3cnn(Cc4ccc5ccccc5n4)c3)cc(Br)cc2c2ccnc(C)c21 [Example 38, 6-Bromo-9-ethyl-1-methyl-8-(1-quinolin-2-ylmethyl-1H-pyrazol-4-yl)-9H-pyrido[3,4-b]indole] | 50 to 80
22 | 990 | FC(F)(F)Cn1c2cnccc2c2cc(Cl)cc(-c3cnn(Cc4ccccn4)c3)c21 [Example 168, 6-Chloro-8-(1-pyridin-2-ylmethyl-1H-pyrazol-4-yl)-9-(2,2,2-trifluoro-ethyl)-9H-pyrido[3,4-b]indole] | > 80
23 | 2000 | FC(F)(F)Cn1c2cnccc2c2cc(Cl)cc(-c3cnccc3Cl)c21 [Example 69, 6-Chloro-8-(4-chloro-pyridin-3-yl)-9-(2,2,2-trifluoro-ethyl)-9H-pyrido[3,4-b]indole] | 50 to 80
24 | > 10000 | Cc1nn(C)c(C)c1-c1cc(Cl)cc2c3ccncc3n(CC(F)(F)F)c12 [Example 138, 6-Chloro-9-(2,2,2-trifluoro-ethyl)-8-(1,3,5-trimethyl-1H-pyrazol-4-yl)-9H-pyrido[3,4-b]indole] | < 20
25 | 380 | FC(F)(F)Cn1c2cnccc2c2cc(Cl)cc(-c3ccncc3)c21 [Example 127, 6-Chloro-8-pyridin-4-yl-9-(2,2,2-trifluoro-ethyl)-9H-pyrido[3,4-b]indole] | 50 to 80
26 | 510 | Cc1ccc(-c2cc(Cl)cc3c2[nH]c2c(C)nccc23)cc1 [Example 150, 6-Chloro-1-methyl-8-p-tolyl-9H-pyrido[3,4-b]indole] | > 80
27 | 1200 | CN(C)c1ccc(-c2cc(Cl)cc3c4ccncc4n(CC4CC4)c23)c(Cl)n1 [Example 294, [6-Chloro-5-(6-chloro-9-cyclopropylmethyl-9H-pyrido[3,4-b]indol-8-yl)-pyridin-2-yl]-dimethyl-amine] | > 80
28 | 860 | COc1ccc(-c2cc(C)cc3c2[nH]c2c(C)nccc23)cc1 [Example 14, 8-(4-Methoxy-phenyl)-1,6-dimethyl-9H-pyrido[3,4-b]indole] | > 80
29 | 630 | Cc1nccc2c1[nH]c1c(-c3ccc(OC4CCOC4)cc3)cc(Cl)cc12 (centres unmarked) [Example 197, 6-Chloro-1-methyl-8-[4-(tetrahydro-furan-3-yloxy)-phenyl]-9H-pyrido[3,4-b]indole] | > 80
30 | 550 | CCn1c2c(-c3cnn(CCOC(C)=O)c3)cc(Cl)cc2c2ccnc(C)c21 [Example 263, Acetic acid 2-[4-(6-chloro-9-ethyl-1-methyl-9H-pyrido[3,4-b]indol-8-yl)-pyrazol-1-yl]-ethyl ester] | > 80
31 | 1600 | CCn1c2c(-c3cnn(Cc4ccccc4)c3)cc(Cl)cc2c2ccnc(C)c21 [Example 207, 8-(1-Benzyl-1H-pyrazol-4-yl)-6-chloro-9-ethyl-1-methyl-9H-pyrido[3,4-b]indole] | > 80
32 | 1600 | Cc1nccc2c1[nH]c1c(-c3ccc(C(F)(F)F)cc3)cc(Cl)cc12 [Example 252, 6-Chloro-1-methyl-8-(4-trifluoromethyl-phenyl)-9H-pyrido[3,4-b]indole] | > 80
33 | 4100 | FC(F)(F)Cn1c2cnccc2c2cc(Cl)cc(-c3cc(-c4ccccc4)no3)c21 [Example 136, 6-Chloro-8-(3-phenyl-isoxazol-5-yl)-9-(2,2,2-trifluoro-ethyl)-9H-pyrido[3,4-b]indole] | 50 to 80
34 | > 10000 | CCn1c2c(-c3ccn(CCn4cccn4)n3)cc(Cl)cc2c2ccnc(C)c21 [Example 233, 6-Chloro-9-ethyl-1-methyl-8-[1-(2-pyrazol-1-yl-ethyl)-1H-pyrazol-3-yl]-9H-pyrido[3,4-b]indole] | 20 to 50
35 | 2800 | Cc1cc2c([nH]c3c(-c4ccc(OCCn5cccn5)cc4)cc(Br)cc32)c(C)n1 [Example 16, 6-Bromo-1,3-dimethyl-8-[4-(2-pyrazol-1-yl-ethoxy)-phenyl]-9H-pyrido[3,4-b]indole] | 50 to 80
36 | > 10000 | CCn1c2c(-c3cccc(C(N)=O)c3)cc(Cl)cc2c2ccnc(C)c21 [Example 220, 3-(6-Chloro-9-ethyl-1-methyl-9H-pyrido[3,4-b]indol-8-yl)-benzamide] | 20 to 50
37 | 590 | FC(F)(F)Cn1c2cnccc2c2cc(Cl)cc(-c3cnn(Cc4ccccc4)c3)c21 [Example 162, 8-(1-Benzyl-1H-pyrazol-4-yl)-6-chloro-9-(2,2,2-trifluoro-ethyl)-9H-pyrido[3,4-b]indole] | > 80
